# Assay results from PubChem BioAssay (NCI).
#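 All cell lines were grown in 96-well plates and treated with compound for 48 hours. GI50 marks 50% less growth. TGI is the concentration that stops growth completely.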
# Tests used:
# Test in all cases: growth of human tumour cells (NCI), 48 h
# A549 NSCLC = system: A549 NSCLC
# COLO 205 colon = system: COLO 205 colon
# M19-MEL melanoma = system: M19-MEL melanoma
# OVCAR-4 ovarian = system: OVCAR-4 ovarian
# OVCAR-5 ovarian = system: OVCAR-5 ovarian
# RPMI-8226 leukemia = system: RPMI-8226 leukemia
# RXF 393 renal = system: RXF 393 renal
# SK-MEL-5 melanoma = system: SK-MEL-5 melanoma
# U251 CNS = system: U251 CNS
# UO-31 renal = system: UO-31 renal
# MCF7 breast = system: MCF7 breast
# NCI/ADR-RES ovarian = system: NCI/ADR-RES ovarian
SMILES,TGI (A549 NSCLC) [µM],TGI (COLO 205 colon) [µM],TGI (M19-MEL melanoma) [µM],TGI (OVCAR-4 ovarian) [µM],TGI (OVCAR-5 ovarian) [µM],TGI (RPMI-8226 leukemia) [µM],TGI (RXF 393 renal) [µM],TGI (SK-MEL-5 melanoma) [µM],TGI (U251 CNS) [µM],TGI (UO-31 renal) [µM],TGI (MCF7 breast) [µM],TGI (NCI/ADR-RES ovarian) [µM],GI50 (A549 NSCLC) [µM],GI50 (COLO 205 colon) [µM],GI50 (MCF7 breast) [µM],GI50 (NCI/ADR-RES ovarian) [µM],GI50 (OVCAR-4 ovarian) [µM],GI50 (OVCAR-5 ovarian) [µM],GI50 (RPMI-8226 leukemia) [µM],GI50 (U251 CNS) [µM]
CCCCCCCCC[C@@H]1C[C@H](O)[C@H](Cc2ccccc2)N1C(=O)OC(C)(C)C,32.6,31.1,30.9,33,28.5,63.3,32.2,33.1,30.2,27.4,,,,,,,,,,
O=c1n(CC2CO2)c2ccccc2n1CC1CS1 (stereo unspecified),> 100,> 100,> 100,> 100,> 100,> 100,> 100,,,> 100,,,,,,,,,,
O=[N+]([O-])c1cnccc1-n1nnc2ccccc21,> 90.1,72.8,49.6,> 60.5,73.4,> 100,46.8,33.3,> 81.8,> 86.2,36.5,63.4,,,,,,,,
c1ccc2c(CCNC3=NCCO3)cccc2c1,> 10,> 10,,> 10,> 10,> 10,> 10,> 10,> 10,> 10,> 10,> 10,,,,,,,,
O=C(O)c1cc2sc(C(=O)O)cc2s1,> 100,> 100,> 100,> 100,> 100,> 100,> 100,> 100,> 100,,,,,,,,,,,
O=[N+]([O-])c1ccc(N/N=C\c2ccc(O)cc2O)nc1,> 100,> 100,,> 100,> 100,> 100,,,> 100,,> 100,31.2,2.47,5.56,3.4,0.498,1.11,5.68,4.21,2.08
Nc1[nH]nc2c1Cc1c(n(Cc3ccc(Cl)cc3)c3ccccc13)C(=O)N2,46.2,23.7,,32,27.3,,25.9,17.6,,19.4,26.9,44.6,,,,,,,,
CC(=O)Nc1ccc(C(=O)NN2C(=O)C(Cl)C2/C=C/c2ccccc2)cc1 (stereo unspecified),> 100,> 100,> 100,,> 100,> 100,,> 100,> 100,> 100,,,,,,,,,,
CSc1nc(NC2OC(CO)C(O)C(O)C2O)c(N)c(=O)[nH]1 (stereo unspecified),> 100,> 100,> 100,> 100,> 100,> 100,> 100,> 100,> 100,> 100,> 100,> 100,,,,,,,,
COC(=O)C(Cc1cc(OC)c(OC)c(OC)c1)(NC(=O)c1ccccc1)P(=O)(OC)OC (stereo unspecified),> 100,> 100,> 100,> 100,> 100,> 100,> 100,> 100,> 100,> 100,,,,,,,,,,
O=C1CN2CCN(CC2)CC(=O)Nc2ccc(cc2)S(=O)(=O)c2ccc(cc2)NC(=O)CN2CCN(CC2)CC(=O)Nc2ccc(cc2)S(=O)(=O)c2ccc(cc2)N1,> 100,> 100,,> 100,67.7,> 80.8,> 100,> 100,> 94.3,> 100,> 100,> 87.3,,,,,,,,
